viability, T/C and IC50 data for 14 molecules are collected here from PubChem BioAssay AID1963967 (Molecular Pharmacology Branch, DTP, NCI, 2024).

Values joined by “and” are separate entries in the source; they are usually repeats but may differ in a detail not shown here. Equal values may be shown once. Where only a bound is given, the exact number is not on record here.

In this assay the test system is 855422-203-R-J1-PDC spheroids with HUVEC/MSC, viability. Description: Anticancer human tumor 855422-203-R-J1-PDC patient-derived bladder carcinoma cell line growth inhibition [PI3K]. To be noted: for viability, T/C: stronger effect = lower value. The text has this:
Combinatorial screen of targeted agents with the PI3K inhibitors inavolisib, alpelisib, duvelisib, and copanlisib in multi-cell type tumor spheroids
A high-throughput screen of multi-cell type tumor spheroids was designed to identify active combinations of targeted small molecules and PI3K pathway inhibitors. Complex spheroids include a stromal component modeled by human endothelial cells (HUVEC) and fibroblasts modeled by human mesenchymal stem cells (MSCs). The concentration ranges selected for each drug and investigational agent were based upon clinically achievable concentrations if the clinical Cmax of the agent was known.
Compounds. The drugs and investigational agents: inavolisib (NSC800729), alpelisib (NSC765974), duvelisib (NSC772469), copanlisib (NSC816437), ipatasertib (NSC767898), afuresertib (NSC778305), talazoparib (NSC767125), sapanisertib (NSC764658), selumetinib (NSC741078), tovorafenib (DAY101, NSC766906), vemurafenib (NSC761431), ravoxertinib (NSC781343), sotorasib (NSC818433), MRTX1133 (NSC 836407), abemaciclib (NSC 768073), palbociclib (NSC758247), venetoclax (NSC 766270), SY5609 (NSC837396), enzalutamide (NSC755605), and darolutamide (NSC825331), were obtained from the National Cancer Institute (NCI) Developmental Therapeutics Program Chemical Repository. The FDA-approved anticancer drug set is available from the NCI Developmental Therapeutics Program. […] The stock solutions were prepared in dimethyl sulfoxide (DMSO, Sigma-Aldrich, St. Louis, MO, cat. D2650) at 800-fold the tested concentration and stored at -70 degrees C prior to their use. All drugs and investigational agents were tested over a range starting from a high concentration at or near the clinical Cmax and decreasing in half-log increments. If the clinical Cmax for an agent had not been determined, the highest concentration tested was 10 microM.
Cell Culture. All cells were maintained in an incubator at 37 degrees C and 5% CO2 with 95% humidity. The PDC lines were cultured according to standard operating procedures established by the NCI PDMR (https://pdmr.cancer.gov/sops/default.htm). All PDCs were thawed and cultured in Matrigel-coated flasks prepared with a working solution of 1X Ham's F-12 nutrient mix, without supplementation (Invitrogen, Waltham, MA, cat. 11765054), 100 U/mL penicillin-streptomycin (Invitrogen, cat. 15140122), and 2.5% Matrigel (Corning Inc., Corning, NY, cat. 354248) for the first three passages. The 354836-022-R-J1-PDC, 475296-252-R-J1-PDC, and 997726-040-R-J2-PDC lines were cultured in 6A media, which includes advanced DMEM/F-12 (Thermo Fisher Scientific, cat. 12634028), 10 mM HEPES (Thermo Fisher Scientific, cat. 15630080), 1X GlutaMAX supplement (Thermo Fisher Scientific, cat. 35050061), 0.1 mg/mL primocin (InvivoGen, San Diego, CA, cat. ant-pm-2), 10% defined fetal bovine serum, heat inactivated (HyClone Laboratories Inc., Logan, UT, cat. SH30070.03HI), 50% L-WRN conditioned media (ATCC, cat. CRL-3276), 1.25 mM N-Acetyl-L-cysteine (Sigma-Aldrich, cat. A9165), 10 mM nicotinamide (Sigma-Aldrich, cat. N0636), 1X B-27 supplement (Thermo Fisher Scientific, cat. 17504044), 1X N-2 supplement (Thermo Fisher Scientific, cat. 17502048), and 10 microM Y-27632 dihydrochloride (Tocris Bioscience, Bristol, United Kingdom, cat. 1254). The 624824-186-R-J2-PDC line was cultured in 6C/Colon 1B media, which includes all 6A media components plus 50 ng/mL human EGF recombinant protein (Thermo Fisher Scientific, cat. PHG0311). […]

Where [1] appears, read: compound alone, run of 05/08/2023.
[2] abbreviates: compound alone, run of 05/09/2023.
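Also: agents incubated with spheroids for one week before read-out.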
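For viability, T/C in this document: 100% = DMSO vehicle-treated control wells.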

A word on the viability, T/C: it is the ratio of treated to control. A word on the IC50: it is the concentration that inhibits the measured activity by half. On to `CC(=O)c1c(C)c2cnc(Nc3ccc(N4CCNCC4)cn3)nc2n(C2CCCC2)c1=O`, for which the viability, T/C is, setting by setting: (compound 0.000316 µM) 105% (2×) and 96.8% and 106%; (compound 0.001 µM) 90.8% [middle of 4 runs]; (compound 0.00316 µM) 115% [middle of 4 runs]; (compound 0.01 µM) 100% (2×) and 98.9% and 98.4%; (compound 0.0316 µM) 99% [middle of 4 runs]; (compound 0.1 µM) 83.8% [middle of 4 runs]. For the same molecule, under “curve of compound”, the IC50 is over 0.1 µM.

Take `CC(C)NCC(C(=O)N1CCN(c2ncnc3c2C(C)CC3O)CC1)c1ccc(Cl)cc1` (stereo not drawn): the viability, T/C by setting is: (compound 0.0316 µM) 93.1% [middle of 4 runs]; (compound 0.1 µM) 82.9% [middle of 4 runs]; (compound 0.316 µM) 78.5% [middle of 4 runs]; (compound 1 µM) 51.7% [middle of 4 runs]; (compound 3.16 µM) 36.8% [middle of 4 runs]; (compound 10 µM) 19.9% (2×) and 18.6% and 19.6%. For the setting “curve of compound”, the IC50 is 1.25 µM [middle of 4 runs].

Regarding `CC(C)n1nc(-c2ccc3oc(N)nc3c2)c2c(N)ncnc21`, the viability, T/C is 113% [middle of 4 runs] (compound 0.000316 µM); 93.4% [middle of 4 runs] (compound 0.001 µM); 113% [middle of 4 runs] (compound 0.00316 µM); 91.1% [middle of 4 runs] (compound 0.01 µM); 80.6% [middle of 4 runs] (compound 0.0316 µM); 17.8% [middle of 4 runs] (compound 0.1 µM). The IC50 (curve of compound) was 55.3 nM [middle of 4 runs].

Regarding `CC(Cn1ccc(-c2ccc(C#N)c(Cl)c2)n1)NC(=O)c1cc(C(C)O)[nH]n1` (stereo not drawn), the viability, T/C runs as follows: (compound 0.0316 µM) 108% [middle of 4 runs]; (compound 0.1 µM) 96.9% [middle of 4 runs]; (compound 0.316 µM) 110% [middle of 4 runs]; (compound 1 µM) 93.5% [middle of 4 runs]; (compound 3.16 µM) 97.2% [middle of 4 runs]; (compound 10 µM) 86.2% [middle of 4 runs]. Moreover, the IC50 (curve of compound) is over 10 µM.

Turning to `CC(Nc1ccc2c(c1)OCCn1cc(N3C(=O)OCC3C(F)F)nc1-2)C(N)=O` (stereo not drawn), the viability, T/C (compound 0.00316 µM) was 107% [middle of 8 runs]; the viability, T/C (compound 0.01 µM) was 104% [middle of 8 runs]; the viability, T/C (compound 0.0316 µM) was 98.5% [middle of 8 runs]; the viability, T/C (compound 0.1 µM) is 76.7% [middle of 8 runs]; the viability, T/C (compound 0.316 µM) was 50.6% [middle of 8 runs]; the viability, T/C (compound 1 µM) was 35.6% [middle of 8 runs]. Under setting [1], the IC50 is 300 nM [middle of 8 runs].

With `CC(Nc1ncnc2nc[nH]c12)c1cc2cccc(Cl)c2c(=O)n1-c1ccccc1` (stereo not drawn), the viability, T/C is, setting by setting: (compound 0.0316 µM) 107% [middle of 8 runs]; (compound 0.1 µM) 108% [middle of 8 runs]; (compound 0.316 µM) 115% [middle of 8 runs]; (compound 1 µM) 107% [middle of 8 runs]; (compound 3.16 µM) 98.8% [middle of 8 runs]; (compound 10 µM) 86.2% [middle of 8 runs]. Besides, the IC50 under setting [2] is over 10 µM.

With `CC1(C)CCC(CN2CCN(c3ccc(C(=O)NS(=O)(=O)c4ccc(NCC5CCOCC5)c([N+](=O)[O-])c4)c(Oc4cnc5[nH]ccc5c4)c3)CC2)=C(c2ccc(Cl)cc2)C1`, the viability, T/C is 107% [middle of 4 runs] (compound 0.0316 µM); 92.7% [middle of 4 runs] (compound 0.1 µM); 118% [middle of 4 runs] (compound 0.316 µM); 102% and 95.7% and 103% (2×) (compound 1 µM); 2.29% [middle of 4 runs] (compound 10 µM). Under “curve of compound”, the IC50 was 4.81 µM [middle of 4 runs].

For the molecule `CCN1CCN(Cc2ccc(Nc3ncc(F)c(-c4cc(F)c5nc(C)n(C(C)C)c5c4)n3)nc2)CC1`, the viability, T/C runs as follows: (compound 0.00316 µM) 111% [middle of 4 runs]; (compound 0.0316 µM) 107% [middle of 4 runs]; (compound 0.1 µM) 83.3% [middle of 4 runs]; (compound 0.316 µM) 71.9% and 69.7% (2×) and 83.9%; (compound 1 µM) 60.2% [middle of 4 runs]. Further, the IC50 (curve of compound) is over 1 µM.

As to `CNC(=O)c1ccc(N2C(=S)N(c3ccc(C#N)c(C(F)(F)F)c3)C(=O)C2(C)C)cc1F`, the viability, T/C runs as follows: (compound 0.0316 µM) 110% [middle of 4 runs]; (compound 0.1 µM) 99.4% [middle of 4 runs]; (compound 0.316 µM) 106% [middle of 4 runs]; (compound 1 µM) 84.8% [middle of 4 runs]; (compound 3.16 µM) 79.4% [middle of 4 runs]; (compound 10 µM) 66.9% [middle of 4 runs]. In addition, where the note is “curve of compound”, the IC50 was over 10 µM.

For `COc1c(OCCCN2CCOCC2)ccc2c3n(c(=NC(=O)c4cnc(N)nc4)nc12)CCN3`, the viability, T/C (compound 0.00316 µM) was 100% [middle of 8 runs]; the viability, T/C (compound 0.01 µM) was 92% [middle of 8 runs]; the viability, T/C (compound 0.0316 µM) is 71.8% [middle of 8 runs]; the viability, T/C (compound 0.1 µM) was 30.5% [middle of 8 runs]; the viability, T/C (compound 0.316 µM) is 9.42% [middle of 8 runs]; the viability, T/C (compound 1 µM) was 4.6% [middle of 8 runs]. Besides, the IC50 under setting [2] is 58.2 nM [middle of 8 runs].

With `C[C@@H](NC(=O)c1ncnc(N)c1Cl)c1ncc(C(=O)Nc2cc(C(F)(F)F)c(Cl)cn2)s1`, the viability, T/C is, setting by setting: (compound 0.0316 µM) 107% [middle of 4 runs]; (compound 0.1 µM) 99.5% [middle of 4 runs]; (compound 0.316 µM) 118% [middle of 4 runs]; (compound 3.16 µM) 122% [middle of 4 runs]; (compound 10 µM) 120% [middle of 4 runs]. Moreover, the IC50 (curve of compound) is over 10 µM.

For `Cc1nc(NC(=O)N2CCCC2C(N)=O)sc1-c1ccnc(C(C)(C)C(F)(F)F)c1` (stereo not drawn), the viability, T/C is, setting by setting: (compound 0.0316 µM) 107% [middle of 8 runs]; (compound 1 µM) 75.8% [middle of 8 runs]; (compound 3.16 µM) 43% [middle of 8 runs]; (compound 10 µM) 22.2% [middle of 8 runs]. Further, the IC50 under setting [1] was 2.53 µM [middle of 8 runs].

Regarding `Cn1cnc2c(F)c(Nc3ccc(Br)cc3Cl)c(C(=O)NOCCO)cc21`, the viability, T/C by setting is: (compound 0.00949 µM) 100% [middle of 4 runs]; (compound 0.03 µM) 94.8% [middle of 4 runs]; (compound 0.0949 µM) 101% [middle of 4 runs]; (compound 0.3 µM) 88% [middle of 4 runs]; (compound 0.949 µM) 87.5% [middle of 4 runs]; (compound 3 µM) 47% [middle of 4 runs]. Moreover, the IC50 (curve of compound) is 2.81 µM [middle of 4 runs].

For `Cn1ncnc1[C@H]1c2n[nH]c(=O)c3cc(F)cc(c23)N[C@@H]1c1ccc(F)cc1`, the viability, T/C runs as follows: (compound 0.000316 µM) 113% [middle of 4 runs]; (compound 0.001 µM) 107% [middle of 4 runs]; (compound 0.00316 µM) 104% (2×) and 108% and 109%; (compound 0.01 µM) 101% [middle of 4 runs]; (compound 0.0316 µM) 110% [middle of 4 runs]; (compound 0.1 µM) 107% and 100% (3×). Moreover, the half-maximal inhibitory concentration (IC50) (curve of compound) was over 0.1 µM.
